Measured values as given in US20250084091A1, “INHIBITORS OF SARS-COV-2” (The Texas A&M University System, priority 2021, published 2025).
Where two headings read alike, the source gives them in different places.

Tests used:
[1] = biological target: SARS-CoV-2 main protease (Mpro) (Severe acute respiratory syndrome coronavirus 2, UniProt P0DTD1); experiment: biochemical
[2] = tested on: SARS-CoV-2 (strain USA-WA1/2020); experiment: microbe, parasite or virus in culture; assay type: cell-based; settings: SARS-CoV-2 infected HeLa-ACE2 cells
HeLa-ACE2 cells = experiment: cells; assay type: cell-based; settings: Table 2, total cell count in infected plates
[3] = Uninfected host cell cytotoxicity counter screen; assay type: cell-based; settings: human
Procedure: Uninfected host cell cytotoxicity counter screen: HeLa-ACE2 cells were maintained as described for the infection assay and seeded in the assay-ready plates at 400 cells/well. Plates were incubated for 24 hours at 37° C. 5% CO2. To assess cell viability, the Image-iT DEAD green reagent was used according to manufacturer instructions. Cells were fixed with 4% paraformaldehyde, and counterstained with DAPI. Fixed cells are imaged as described above.
Viral replication data analysis: Data from the primary screen and the host cell cytotoxicity screen are normalized to neutral (DMSO) […] inhibitor controls (2.5 μM Remdesivir for antiviral effect and 10 μM puromycin for infected host cell toxicity). For the uninfected host cell cytotoxicity counter-screen 40 μM puromycin is used as the positive control. Concentration response experiments will be tested in triplicate.

[4] = Severe acute respiratory syndrome coronavirus 2, Table 2, read-out: CoV-2 HeLa EC50
[5] = Severe acute respiratory syndrome coronavirus 2, HeLa-ACE2, read-out: CoV-2 HeLa EC50, Table 2

O=C(c1cncnc1)N1CCN(C(c2ccccc2)c2ccccc2)CC1 [AA-577, (4-benzhydrylpiperazin-1-yl)(pyrimidin-5-yl)methanone]
IC50 ([1]; Table 2, read-out: Enzyme IC50): 8.3 µM | EC50 [2, 4]: 8.51 µM | EC50 (HeLa-ACE2 cells): > 9.61 µM | CC50 at 24 h [3]: > 39.8 µM

O=C(c1cnccn1)N1CCN(C(c2ccccc2)c2ccccc2)CC1 [AA-579, (4-benzhydrylpiperazin-1-yl)(pyrazin-2-yl)methanone]
IC50 ([1]; Table 2, read-out: Enzyme IC50): 7.7 µM | EC50 [2, 5]: > 9.61 µM | EC50 (HeLa-ACE2 cells): > 9.61 µM | CC50 at 24 h [3]: > 39.8 µM

COc1cncc(C(=O)N2CCN(C(c3ccccc3)c3ccccc3)CC2)c1 [AA-589, (4-benzhydrylpiperazin-1-yl)(5-methoxypyridin-3-yl)methanone]
IC50 ([1]; Table 2, read-out: Enzyme IC50): 0.48 µM | EC50 [2, 4]: 1.43 µM | EC50 (HeLa-ACE2 cells): > 9.61 µM | CC50 at 24 h [3]: > 39.8 µM

O=C(c1cncc(C(F)(F)F)c1)N1CCN(C(c2ccccc2)c2ccccc2)CC1 [AA-590, (4-benzhydrylpiperazin-1-yl)(5-(trifluoromethyl)pyridin-3-yl)methanone]
IC50 ([1]; Table 2, read-out: Enzyme IC50): 0.99 µM | EC50 [2, 4]: 4.9 µM | EC50 (HeLa-ACE2 cells): > 9.61 µM | CC50 at 24 h [3]: > 39.8 µM

O=C(c1cncc(Cl)c1)N1CCN(C(c2ccccc2)c2ccccc2)CC1 [AA-591, (4-benzhydrylpiperazin-1-yl)(5-chloropyridin-3-yl)methanone]
IC50 ([1]; Table 2, read-out: Enzyme IC50): 0.3 µM | EC50 [2, 4]: 0.89 µM | EC50 (HeLa-ACE2 cells): > 9.61 µM | CC50 at 24 h [3]: > 39.8 µM

O=C(c1cncc(F)c1)N1CCN(C(c2ccccc2)c2ccccc2)CC1 [AA-592, (4-benzhydrylpiperazin-1-yl)(5-fluoropyridin-3-yl)methanone]
IC50 ([1]; Table 2, read-out: Enzyme IC50): 0.97 µM | EC50 [2, 4]: 2.72 µM | EC50 (HeLa-ACE2 cells): > 9.61 µM | CC50 at 24 h [3]: > 39.8 µM

O=C(c1cccnc1)N1C2CCC1CN(C(c1ccccc1)c1ccccc1)C2 [AA-597, (3-benzhydryl-3,8-diazabicyclo[3.2.1]octan-8-yl)(pyridin-3-yl)methanone]
IC50 ([1]; Enzyme IC50, Table 2): 3.9 µM | EC50 [2, 5]: > 9.61 µM | EC50 (HeLa-ACE2 cells): > 9.61 µM | CC50 at 24 h ([3]; Table 2, uninfected cells, 24 hours, read-out: Uninfected HeLa-ACE2 CC50): > 39.8 µM

O=C(c1cccnc1)N1CCN(C(c2ccc(F)cc2)c2ccc(F)cc2)CC1 [AA-598, (4-(bis(4-fluorophenyl)methyl)piperazin-1-yl)(yridine-3-yl)methanone]
IC50 ([1]; Table 2, read-out: Enzyme IC50): 1.9 µM | EC50 [2, 5]: > 9.61 µM | EC50 (HeLa-ACE2 cells): > 9.61 µM | CC50 at 24 h [3]: > 39.8 µM

c1ccc(C(c2ccccc2)N2CCN(c3nccc4ccncc34)CC2)cc1 [AA-649, 1-(4-benzhydrylpiperazin-1-yl)-2,7-naphthyridine]
EC50 [2, 5]: > 9.61 µM | EC50 (HeLa-ACE2 cells): > 9.61 µM | CC50 at 24 h [3]: > 39.8 µM

O=C(c1cnc2ccccc2c1)N1CCN(C(c2ccccc2)c2ccccc2)CC1 [MKP-1167, 3-[4-(diphenylmethyl)piperazine-1-carbonyl]quinoline]
EC50 [2, 5]: > 9.61 µM | EC50 (HeLa-ACE2 cells): > 9.61 µM | CC50 at 24 h [3]: > 39.8 µM

C=C(C)C(=O)N1CCN(C(c2ccccc2)c2ccccc2)CC1 [MKP-1219, 1-[4-(diphenylmethyl)piperazin-1-yl]-2-methylprop-2-en-1-one]
EC50 [2, 5]: > 9.61 µM | EC50 (HeLa-ACE2 cells): > 9.61 µM | CC50 at 24 h [3]: > 39.8 µM

N#Cc1ccc(C(=O)N2CCN(C(c3ccccc3)c3ccccc3)CC2)cn1 [MKP-1229, 5-[4-(diphenylmethyl)piperazine-1-carbonyl]pyridine-2-carbonitrile]
EC50 [2, 5]: > 9.61 µM | EC50 (HeLa-ACE2 cells): > 9.61 µM | CC50 at 24 h [3]: > 39.8 µM

N#CC(c1cccnc1)N1CCN(C(c2ccccc2)c2ccccc2)CC1 (centres unmarked) [MKP-1306, 2-[4-(diphenylmethyl)piperazin-1-yl]-2-(pyridin-3-yl)acetonitrile]
EC50 [2, 5]: > 9.61 µM | EC50 (HeLa-ACE2 cells): > 9.61 µM | CC50 at 24 h [3]: > 39.8 µM

Cc1cncc(CN2CCN(C(c3ccccc3)c3ccccc3)CC2)c1 [MKP-1307, 1-(diphenylmethyl)-4-[(5-methylpyridin-3-yl)methyl]piperazine]
EC50 [2, 5]: > 9.61 µM | EC50 (HeLa-ACE2 cells): > 9.61 µM | CC50 at 24 h [3]: > 39.8 µM

Nc1ccc(C(=O)N2CCN(C(c3ccccc3)c3ccccc3)CC2)cn1 [MKP-1309, 5-[4-(diphenylmethyl)piperazine-1-carbonyl]pyridin-2-amine]
EC50 [2, 5]: > 9.61 µM | EC50 (HeLa-ACE2 cells): > 9.61 µM | CC50 at 24 h [3]: > 39.8 µM

O=C(c1cncs1)N1CCN(C(c2ccccc2)c2ccccc2)CC1 [MKP-1318, 1-(diphenylmethyl)-4-(1,3-thiazole-5-carbonyl)piperazine]
EC50 [2, 5]: > 9.61 µM | EC50 (HeLa-ACE2 cells): > 9.61 µM | CC50 at 24 h [3]: > 39.8 µM

Nc1ncc(C(=O)N2CCN(C(c3ccccc3)c3ccccc3)CC2)cn1 [MKP-1322, 5-[4-(diphenylmethyl)piperazine-1-carbonyl]pyrimidin-2-amine]
EC50 [2, 5]: > 9.61 µM | EC50 (HeLa-ACE2 cells): > 9.61 µM | CC50 at 24 h [3]: > 39.8 µM

Cc1cncc(NC(=O)N2CCN(C(c3ccccc3)c3ccccc3)CC2)c1 [MKP-1323, 4-benzhydryl-N-(5-methylpyridin-3-yl)piperazine-1-carboxamide]
EC50 [2, 5]: > 9.61 µM | EC50 (HeLa-ACE2 cells): > 9.61 µM | CC50 at 24 h [3]: 31.7 µM

O=C(c1ccon1)N1CCN(C(c2ccccc2)c2ccccc2)CC1 [MKP-1324, 1-(diphenylmethyl)-4-(1,2-oxazole-3-carbonyl)piperazine]
EC50 [2, 5]: > 9.61 µM | EC50 (HeLa-ACE2 cells): > 9.61 µM | CC50 at 24 h [3]: > 39.8 µM

Cc1oncc1C(=O)N1CCN(C(c2ccccc2)c2ccccc2)CC1 [MKP-1332, (4-benzhydrylpiperazin-1-yl)(5-methylisoxazol-4-yl)methanone]
EC50 [2, 5]: > 9.61 µM | EC50 (HeLa-ACE2 cells): > 9.61 µM | CC50 at 24 h [3]: > 39.8 µM

O=C1CC(C(=O)N2CCC(C(O)(c3ccccc3)c3ccccc3)CC2)CCN1 (centres unmarked) [NZ-789, 4-[4-(hydroxydiphenylmethyl)piperidine-1-carbonyl]piperidin-2-one]
EC50 [2, 5]: > 9.61 µM | EC50 (HeLa-ACE2 cells): > 9.61 µM | CC50 at 24 h [3]: > 39.8 µM

O=C1CC(C(=O)N2CCC(C(O)(c3ccccc3)c3ccccc3)CC2)CN1 (centres unmarked) [NZ-790, 4-[4-(hydroxydiphenylmethyl)piperidine-1-carbonyl]pyrrolidin-2-one]
EC50 [2, 5]: > 9.61 µM | EC50 (HeLa-ACE2 cells): > 9.61 µM | CC50 at 24 h [3]: > 39.8 µM

O=Cc1ccccc1C(=O)N1CCC(C(O)(c2ccccc2)c2ccccc2)CC1 [NZ-791, 2-[4-(hydroxydiphenylmethyl)piperidine-1-carbonyl]benzaldehyde]
EC50 [2, 5]: > 9.61 µM | EC50 (HeLa-ACE2 cells): > 9.61 µM | CC50 at 24 h [3]: > 39.8 µM

O=C1CC(CC(=O)N2CCN(C3c4ccccc4CS(=O)(=O)c4ccccc43)CC2)c2ccccc2N1 (centres unmarked) [NZ-811, 4-[2-[4-(5,5-dioxo-6,11-dihydrobenzo[c][1]benzothiepin-11-yl)piperazin-1-yl]-2-oxo-ethyl]-3,4-dihydro-1H-quinolin-2-one]
EC50 [2, 5]: > 9.61 µM | EC50 (HeLa-ACE2 cells): > 9.61 µM | CC50 at 24 h [3]: > 39.8 µM

O=C(c1cccnc1Cl)N1CCN(C2c3ccccc3CCc3ccccc32)CC1 [ZS-333, (2-chloro-3-pyridyl)-[4-(2-tricyclo[9.4.0.03,8]pentadeca-1(11),3(8),4,6,12,14-hexaenyl)piperazin-1-yl]methanone]
EC50 [2, 5]: > 9.61 µM | EC50 (HeLa-ACE2 cells): > 9.61 µM | CC50 at 24 h [3]: > 39.8 µM

O=C(O)c1cncc(C(=O)N2CCN(C3c4ccccc4CCc4ccccc43)CC2)c1 [ZS-335, 5-[4-(2-tricyclo[9.4.0.03,8]pentadeca-1(11),3(8),4,6,12,14-hexaenyl)piperazine-1-carbonyl]pyridine-3-carboxylic acid]
EC50 [2, 5]: > 9.61 µM | EC50 (HeLa-ACE2 cells): > 9.61 µM | CC50 at 24 h [3]: > 39.8 µM

O=C(c1ccc(Cl)nc1)N1CCN(C2c3ccccc3CCc3ccccc32)CC1 [ZS-337, (6-chloro-3-pyridyl)-[4-(2-tricyclo[9.4.0.03,8]pentadeca-1(11),3(8),4,6,12,14-hexaenyl)piperazin-1-yl]methanone]
EC50 [2, 5]: > 9.61 µM | EC50 (HeLa-ACE2 cells): > 9.61 µM | CC50 at 24 h [3]: > 39.8 µM
